{"source": "patent US20250059205A1", "about": "“Heterocyclic Compounds and Methods of Use” (AMGEN INC., priority 2021, published 2025)", "key": {"[1]": {"system": "Phosphorylation of ERK1/2 in AsPC-1 cells", "assay": "Phospho-ERK1/2 MSD Assay (AsPC-1 cells)", "type": "cell-based", "settings": "Homo sapiens, ASPC1, 2 h, 2 hours treatment, read-out: p-ERK (AsPC-1 cells) IC50", "procedure,_shortened": "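Read-out: MSD electrochemiluminescent detection of phosphorylated ERK1/2 in whole-cell lysates, fitted to a 4-parameter logistic curve for IC50. Prior to lysis, AsPC-1 cells (25,000 per well) received a 2 h compound dose-response at 37 °C.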"}, "[2]": {"molecular_target": "His-tagged KRAS G12D protein (Homo sapiens, UniProt P01116, G12D)", "sequence (P01116 1-188 isoform P01116-2 G12D)": "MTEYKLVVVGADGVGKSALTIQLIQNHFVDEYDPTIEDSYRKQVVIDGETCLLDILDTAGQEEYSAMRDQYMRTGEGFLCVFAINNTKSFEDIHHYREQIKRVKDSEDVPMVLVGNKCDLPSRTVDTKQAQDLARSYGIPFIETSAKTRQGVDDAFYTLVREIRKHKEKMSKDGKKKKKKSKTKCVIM", "assay": "KRAS G12D TR-FRET Assay", "type": "binding"}, "[3]": {"system": "Phosphorylation of ERK1/2 in A-427 cells", "assay": "Phospho-ERK1/2 MSD Assay (A-427 cells)", "type": "cell-based", "settings": "Homo sapiens, A-427, 2 h, 2 h treatment, read-out: p-ERK (A427 cells) IC50", "procedure,_shortened": "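ERK1/2 phosphorylation measured by Meso Scale whole-cell lysate assay after A-427 cells were exposed to a titration of compound for 2 h at 37 °C.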"}, "[4]": {"molecular_target": "GDP-bound KRAS protein (aa 1-169), containing both G12D and C118A amino acid substitutions (Homo sapiens, UniProt P01116, C118A/G12D)", "sequence (P01116 1-169 isoform P01116-2 G12D/C118A)": "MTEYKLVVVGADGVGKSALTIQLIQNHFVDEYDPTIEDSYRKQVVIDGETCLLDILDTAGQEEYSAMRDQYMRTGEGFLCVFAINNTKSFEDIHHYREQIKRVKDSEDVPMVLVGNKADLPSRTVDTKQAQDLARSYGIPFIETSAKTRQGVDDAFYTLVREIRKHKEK", "assay": "KRAS G12D Coupled Nucleotide Exchange Assay", "type": "biochemical", "settings": "2 h compound pre-incubation", "experimental": "Following compound pre-incubation, purified SOS protein (aa 564-1049) and GTP (Roche 10106399001) were added to the assay wells and incubated for an additional 30 min. […] The assay plates were then read on a PerkinElmer EnVision Multilabel Reader, using AlphaScreen® technology, and data were analyzed using a 4-parameter logistic model to calculate IC50 values."}}}
{"smiles": "Cc1ccc2cnn(C)c2c1-c1c(Cl)cc2c(N3C[C@H]4CC[C@@H](C3)N4)nc(OC[C@@]34CCCN3C[C@H](F)C4)nc2c1F", "note": "[Example 76, 4-((1R,5S)-3,8-diazabicyclo[3.2. 1]octan-3-yl)-6-chloro-7-(1,6-dimethyl-1H-indazol-7-yl)-8-fluoro-2-(((2R,7aS)-2-fluorotetrahydro-1H-pyrrolizin-7a(5H)-yl)methoxy) quinazoline]", "values": [{"measurement": "IC50", "setting": "[1]", "result": 674, "unit": "nM"}, {"measurement": "IC50", "setting": "[2]", "result": 10, "unit": "nM"}, {"measurement": "IC50", "setting": "[3]", "result": 191, "unit": "nM"}, {"measurement": "Avg 2 h Coupled Exchange IC50", "setting": "[4]", "result": 8, "unit": "nM"}]}
{"smiles": "Oc1cc(-c2ccc3c(N4C[C@H]5CC[C@@H](C4)N5)nc(OC[C@@]45CCCN4C[C@H](F)C5)nc3c2)c2c(F)c(F)ccc2c1", "note": "[Example 77, 4-(4-((1R,5S)-3,8-diazabicyclo[3.2. 1]octan-3-yl)-2-(((2R,7aS)-2-fluorotetrahydro-1H-pyrrolizin-7a(5H)-yl)methoxy)quinazolin-7-yl)-5,6-difluoronaphthalen-2-ol]", "values": [{"measurement": "IC50", "setting": "[1]", "result": 62, "unit": "nM"}, {"measurement": "IC50", "setting": "[2]", "result": 3, "unit": "nM"}, {"measurement": "IC50", "setting": "[3]", "result": 38, "unit": "nM"}, {"measurement": "Avg 2 h Coupled Exchange IC50", "setting": "[4]", "result": 2, "unit": "nM"}]}
{"smiles": "Fc1c(-c2cc(Cl)cc3ccccc23)c(Cl)cc2c(N3C[C@H]4CC[C@@H](C3)N4)nc(OC[C@@]34CCCN3C[C@H](F)C4)nc12", "note": "[Example 78, 4-((1R,5S)-3,8-diazabicyclo[3.2. 1]octan-3-yl)-6-chloro-7-(3-chloronaphthalen-1-yl)-8-fluoro-2-(((2R,7aS)-2-fluorotetrahydro-1H-pyrrolizin-7a(5H)-yl)methoxy) quinazoline]", "values": [{"measurement": "IC50", "setting": "[1]", "result": 6030, "unit": "nM"}, {"measurement": "IC50", "setting": "[2]", "result": 226, "unit": "nM"}, {"measurement": "IC50", "setting": "[3]", "result": "> 10000", "unit": "nM"}, {"measurement": "Avg 2 h Coupled Exchange IC50", "setting": "[4]", "result": 90, "unit": "nM"}]}
{"smiles": "Fc1c(-c2ccc(Cl)c3ccccc23)c(Cl)cc2c(N3C[C@H]4CC[C@@H](C3)N4)nc(OC[C@@]34CCCN3C[C@H](F)C4)nc12", "note": "[Example 79, 4-((1R,5S)-3,8-diazabicyclo[3.2. 1]octan-3-yl)-6-chloro-7-(4-chloronaphthalen-1-yl)-8-fluoro-2-(((2R,7aS)-2-fluorotetrahydro-1H-pyrrolizin-7a(5H)-yl)methoxy) quinazoline]", "values": [{"measurement": "IC50", "setting": "[1]", "result": 3430, "unit": "nM"}, {"measurement": "IC50", "setting": "[2]", "result": 26, "unit": "nM"}, {"measurement": "IC50", "setting": "[3]", "result": "> 10000", "unit": "nM"}, {"measurement": "Avg 2 h Coupled Exchange IC50", "setting": "[4]", "result": 26, "unit": "nM"}]}
{"smiles": "Oc1ccc(-c2c(Cl)cc3c(N4C[C@H]5CC[C@@H](C4)N5)nc(OC[C@@]45CCCN4C[C@H](F)C5)nc3c2F)c2ccccc12", "note": "[Example 80, 4-(4-((1R,5S)-3,8-diazabicyclo[3.2. 1]octan-3-yl)-6-chloro-8-fluoro-2-(((2R,7aS)-2-fluorotetrahydro-1H-pyrrolizin-7a(5H)-yl)methoxy)quinazolin-7-yl)naphthalen-1-ol]", "values": [{"measurement": "IC50", "setting": "[1]", "result": 607, "unit": "nM"}, {"measurement": "IC50", "setting": "[2]", "result": 10, "unit": "nM"}, {"measurement": "IC50", "setting": "[3]", "result": 649, "unit": "nM"}, {"measurement": "Avg 2 h Coupled Exchange IC50", "setting": "[4]", "result": 4, "unit": "nM"}]}
{"smiles": "Oc1cc(-c2c(Cl)cc3c(N4C[C@H]5CC[C@@H](C4)N5)nc(OC[C@@]45CCCN4C[C@H](F)C5)nc3c2F)c2c(F)c(F)ccc2c1", "note": "[Example 81, 4-(4-((1R,5S)-3,8-diazabicyclo[3.2. 1]octan-3-yl)-6-chloro-8-fluoro-2-(((2R,7aS)-2-fluorotetrahydro-1H-pyrrolizin-7a(5H)-yl)methoxy)quinazolin-7-yl)-5,6-difluoronaphthalen-2-ol]", "values": [{"measurement": "IC50", "setting": "[1]", "result": 99, "unit": "nM"}, {"measurement": "IC50", "setting": "[2]", "result": 3, "unit": "nM"}, {"measurement": "IC50", "setting": "[3]", "result": 30, "unit": "nM"}, {"measurement": "Avg 2 h Coupled Exchange IC50", "setting": "[4]", "result": 4, "unit": "nM"}]}
{"smiles": "Oc1cc(-c2cc3nc(OC[C@@]45CCCN4C[C@H](F)C5)nc(N4C[C@H]5CC[C@@H](C4)N5)c3cc2F)c2c(F)c(F)ccc2c1", "note": "[Example 82, 4-(4-((1R,5S)-3,8-diazabicyclo[3.2. 1]octan-3-yl)-6-fluoro-2-(((2R,7aS)-2-fluorotetrahydro-1H-pyrrolizin-7a(5H)-yl)methoxy)quinazolin-7-yl)-5,6-difluoronaphthalen-2-ol]", "values": [{"measurement": "IC50", "setting": "[1]", "result": 138, "unit": "nM"}, {"measurement": "IC50", "setting": "[2]", "result": 2, "unit": "nM"}, {"measurement": "IC50", "setting": "[3]", "result": 42, "unit": "nM"}, {"measurement": "Avg 2 h Coupled Exchange IC50", "setting": "[4]", "result": 2, "unit": "nM"}]}
